According to patent publication US20220378714A1, “USE OF CANNABIDIOL PREPARATIONS IN THE TREATMENT OF FRAGILE X SYNDROME” (GW Research Limited, priority 2019, published 2022):

What was measured:
Assay type in all cases: in vivo
Fmr1 KO mice [1] = experiment: Behavioral testing (cohort 2), overall conclusion; conditions: 20 and 200 mg/kg i.p. once daily
Description: Test compounds were evaluated at 2 doses each (20 and 200 mg/kg). Test compounds were injected i.p. (intraperitoneal) acutely at 60 min pre-treatment for audiogenic seizures (cohort 1). For all other behavioural testing, a separate cohort of animals were dosed i.p. once per day for 2 weeks prior to the start of testing and then for 2 weeks during testing, with 60 min pre-treatment on test days (cohort 2).
(§1) 60 male mice were tested at 8 weeks of age. CBD (SYN OR BOT 0.08%) were evaluated at 2 doses each (20 and 200 mg/kg) following once daily intraperitoneal administration, at a dose volume of 10 ml/kg. Compounds were administered for 2 weeks prior to the start of testing and throughout testing.
(§2) On the test day, compounds were administered 60 minutes prior to test.

Fmr1 KO mice [2] = experiment: Open field
Description: as §1, §2
The open field chambers are Plexiglas square chambers (27.3×27.3×20.3 cm; Med Associates Inc., St Albans, Vt.) surrounded by infrared photo beams (16×16×16) to measure horizontal and vertical activity. On the day of testing, mice were brought to the activity experimental room for acclimation to the conditions at least 1 h prior to testing. After a 60 minute pretreatment time, mice were placed in the center of an open field activity box for a 60 minute test period. After the completion of the test, mice were placed back in their home cage.
The time courses for locomotor and rearing activities were presented in 5-minute bins during the 60 minute test. Total distance traveled, and numbers of rears were also summed during the 60 minute test.

Fmr1 KO mice [3] = experiment: Social interaction (three-chamber paradigm); conditions: higher dose (200 mg/kg i.p.)
Description: as §1, §2
The three-chamber paradigm is used to assess social interest. The Plexiglas testing apparatus consists of two side chambers and a center chamber, each 42.5 cm×17.5 cm×23 cm. […]
Group-housed naïve partner mice (age-matched C3H mice) were habituated to the chamber for 30 minutes the day before testing. […] The doorways were then lifted and the subject was allowed to feely explore all three chambers for 10 min while movement was video-recorded and scored manually for sniffing of the mouse or object. […]
Discrimination percentage for time spent in chambers was calculated as (total time spent in mouse chamber-total time spent in object)/(total time spent in mouse+total time in object chamber)*100 and presented in FIG. 4.
Discrimination percentage for interaction frequency was calculated as (number of interactions with mouse−number of interactions with object)/(total number of interactions with the mouse+the object)*100 and is presented in FIG. 5. […]

Fmr1 KO mice [4] = experiment: Audiogenic seizures (cohort 1); conditions: 200 mg/kg i.p. acute, 60 min pre-treatment, vs vehicle-treated Fmr1 KO
Description: 48 male mice were tested at 3 weeks of age. CBD (SYN OR BOT 0.08%) were tested at 2 doses each (20 and 200 mg/kg) following acute intraperitoneal administration at a dose volume of 10 ml/kg. Compounds were administered 60 minutes prior to test.
Following pre-treatment with vehicle or test compound, mice were individually placed in a Plexiglas chamber and allowed to explore for 15 s following which they were exposed to a 125 dB tone for 2 minutes, followed by 1 minute of no sound, and then a further 2 minute tone. The mice were scored based on their response, latency, and seizure intensity:
The following endpoints were reported: • 1. Latency to seize: Time to first seizure (maximum 300 s). […] Latency to respiratory arrest: Time to death (maximum 300 s). Animals that survived received a score of 300 s. • 3. Seizure Score: Maximum score animals obtained during the 5 minute test.

With `C=C(C)[C@@H]1CCC(C)=C[C@H]1c1c(O)cc(CCCCC)cc1O` [CBD (SYN), cannabidiol] the “social or memory related behaviors” value (Fmr1 KO mice [1]) was “Neither the botanically derived purified CBD or the synthetic CBD were found to have any significant improvement”, the “total distance traveled during the 60 minute test period” value (Fmr1 KO mice [2]; 20 mg/kg i.p. once daily, 60 min pre-treatment) was “traveled significantly more than mice treated with CBD (BOT 0.08%) 20 mg/kg” and the “rearing frequency in 5 min bins: periods in which Fmr1 KO-vehicle treated mice reared significantly more than the treated group” value (Fmr1 KO mice [2]; 200 mg/kg i.p. once daily, post-hoc multiple comparisons) was “during minutes 35-40 and during minutes 55-60”. For the same compound, the “discrimination percentage for time spent in chambers” value (Fmr1 KO mice [3]; Dunn's test vs vehicle-treated Fmr1 KO) was “enhanced discrimination compared to vehicle-treated Fmr1 KO mice”, the “total time spent in the partner mouse chamber” value (Fmr1 KO mice [3]; Sidak's test vs Fmr1 KO vehicle) was “spent significantly more time in the partner mouse chamber” and the median seizure score (Fmr1 KO mice [4]) was “This effect was not observed”.
